Experimental data as given in patent US5241087A (priority 1992, dated 1993).

Test system: not listed separately
Assay: Permeability through supported-gas membrane (microporous polypropylene hollow fibers, system of FIG. 1)
Conditions: supported-gas membrane system of FIG. 1

Structure (SMILES) | average permeability relative to the permeability of benzaldehyde cyanohydrin
O=Cc1ccccc1 [benzaldehyde] | roughly 700 times

Test system: oxynitrilase enzyme from sorghum
Assay: not given
Conditions: 6 Phytochemistry 473 (1967); cited from earlier work

Structure (SMILES) | specificity of sorghum oxynitrilase for dehydrocyanation of substrate
N#CC(O)c1ccc(O)cc1 (stereo not drawn) [p-hydroxybenzaldehyde cyanohydrin] | appears to be specific

Test system: (R)-oxynitrilase
Assay: Relative rate of dehydrocyanation of cyanohydrins by soluble (R)-oxynitrilase (initial rate studies, absorbance)
Assay type: biochemical
Conditions: (R)-oxynitrilase with 0.21 mM solution of cyanohydrin; relative to benzaldehyde cyanohydrin = 1.0
Experimental: The following standardized assay was utilized to measure the activity of oxynitrilase set forth in the Examples which follow. A solution of enzyme was prepared in 0.1M (pH 5.5) citrate buffer. A 3-ml sample of enzyme solution was combined with 30 microliters of 0.21M benzaldehyde cyanohydrin and the rate of increase in absorbance at 250 nm recorded. Then, the same procedure was followed with a 3-ml sample of 0.1M (pH 5.5) citrate buffer to obtain the background, non-enzymatic, reaction. The activity in units/ml was calculated by subtracting the slope of the non-enzymatic reaction from the slope of the enzymatic reaction and converting the absorbance change with time to concentration change with time using a molar extinction coefficient of 13,200 M^-1 cm^-1.
Relative rates of dehydrocyanation of different cyanohydrins subjected to the action of the soluble catalyst (R)-oxynitrilase were determined from initial rate studies. A solution of (R)-oxynitrilase was combined with a 0.21 mM solution of cyanohydrin and the rate of increase of absorbance at the wavelength corresponding to the absorption maxima was monitored as described above in connection with the measurement of catalyst activity. The measured activity was calculated using the appropriate extinction coefficient for the corresponding aldehyde.

Structure (SMILES) | Relative Rate (dehydrocyanation)
COc1ccc(C(O)C#N)cc1 (stereo not drawn) [p-Anisaldehyde cyanohydrin] | 0.17
N#CC(O)c1ccco1 (stereo not drawn) [Furfural cyanohydrin] | 2.5
Cc1ccc(C(O)C#N)cc1 (stereo not drawn) [p-Tolualdehyde cyanohydrin] | 0.45
N#CC(O)c1ccccc1 (stereo not drawn) [Benzaldehyde cyanohydrin] | 1.0
CC=CC(O)C#N (stereo not drawn) [Crotonaldehyde cyanohydrin] | 0.90
N#CC(O)c1ccc2c(c1)OCO2 (stereo not drawn) [Piperonal cyanohydrin] | 2.1
Cc1ccc(C(O)C#N)o1 (stereo not drawn) [5-Methylfurfural cyanohydrin] | 2.8
CCc1ccc(C(O)C#N)cc1 (stereo not drawn) [p-Ethylbenzaldehyde cyanohydrin] | 0.13
COc1cccc(C(O)C#N)c1 (stereo not drawn) [m-Anisaldehyde cyanohydrin] | 0.19
N#CC(O)C=Cc1ccccc1 (stereo not drawn) [Cinnamaldehyde cyanohydrin] | 0.05
